Test results taken from publication PMC10648349, “Aromatic Diboronic Acids as Effective KPC/AmpC Inhibitors” (Molecules, 2023).
In brackets after ≈: the same amount, converted by molar mass.

Assays:
[1] = tested on: C. parapsilosis ATCC 22019; assay: antifungal activity (disc-diffusion, MIC, MFC); format: cell-based, Candida parapsilosis; conditions: Lodderomyces parapsilosis, ATCC22019; fluconazole by Etest
Outline: (§1)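 Disc-diffusion, MIC, MBC (bacteria) and MFC (yeasts) were determined per EUCAST and CLSI recommendations. Diboronic acids were dissolved in DMSO and applied at 0.4 mg per disc for diffusion. References: nitrofurantoin (Gram-negative rods), linezolid (Gram-positive), fluconazole (fungi).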

[2] = tested on: C. guilliermondii IBA 155; assay: antifungal activity (disc-diffusion, MIC, MFC); format: cell-based, Candida guilliermondii; conditions: Meyerozyma guilliermondii, IBA155; for MIC: fluconazole by Etest
Outline: as §1

C. krusei ATCC 6258 = assay: antifungal activity (disc-diffusion, MIC, MFC); format: cell-based, Candida krusei; conditions: Pichia kudriavzevii, ATCC6258; fluconazole by Etest
Outline: as §1

C. albicans ATCC 90028 = assay: antifungal activity (disc-diffusion, MIC, MFC); format: cell-based; conditions: Candida albicans, ATCC90028; fluconazole by Etest
Outline: as §1

C. tropicalis ATCC 750 = assay: antifungal activity (disc-diffusion, MIC, MFC); format: cell-based; conditions: Candida tropicalis, ATCC750; fluconazole by Etest
Outline: as §1

C. tropicalis IBA 171 = assay: antifungal activity (disc-diffusion, MIC, MFC); format: cell-based; conditions: Candida tropicalis, IBA171; fluconazole by Etest
Outline: as §1

S. cerevisiae ATCC 9763 = assay: antifungal activity (disc-diffusion, MIC, MFC); format: cell-based; conditions: Saccharomyces cerevisiae, ATCC9763; fluconazole by Etest
Outline: as §1

E. coli 76 KPC-2(+) = assay: MIC of tested agent alone, microdilution; format: cell-based; conditions: Escherichia coli; read-out: MIC of agent alone
Outline: (§2)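 Checkerboard synergy testing crossed two-fold dilutions of the tested agents or PBA (4–16 mg/L) with β-lactam dilutions (1–64 mg/L), and antibiotic MICs were read at each agent level. FICI was derived from the interface wells. Separately, each agent's own MIC came from standard microdilution.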

E. coli 77 CMY-2(+) = assay: MIC of tested agent alone, microdilution; format: cell-based; conditions: Escherichia coli; read-out: MIC of agent alone
Outline: as §2

[3] = tested on: K. pneumoniae 81 KPC-3(+); assay: MIC of tested agent alone, microdilution; format: cell-based; conditions: Klebsiella pneumoniae; read-out: MIC of agent alone
Outline: as §2

[4] = tested on: K. pneumoniae 83 KPC-3(+), CTX-M-3(+); assay: MIC of tested agent alone, microdilution; format: cell-based; conditions: Klebsiella pneumoniae; read-out: MIC of agent alone
Outline: as §2

[5] = tested on: K. pneumoniae ATCC BAA-1705 KPC-2(+); assay: MIC of tested agent alone, microdilution; format: cell-based; conditions: Klebsiella pneumoniae, ATCCBAA1705; read-out: MIC of agent alone
Outline: as §2

[6] = tested on: P. aeruginosa MUW 700 AmpC(+); assay: MIC of tested agent alone, microdilution; format: cell-based; conditions: Pseudomonas aeruginosa; read-out: MIC of agent alone
Outline: as §2

[7] = tested on: K. pneumoniae ATCC BAA 1705 KPC-2-positive; assay: combination disc test CDT-KPC; format: cell-based; conditions: Klebsiella pneumoniae, BAA1705; agent 0.3 mg per disc; read-out: Diameter of inhibition zone, MEM-10 disc with agent
[8] = tested on: P. aeruginosa MUW 700 cAmpC-positive; assay: combination disc test CDT-AmpC; format: cell-based; conditions: Pseudomonas aeruginosa; agent 0.3 mg per disc; read-out: Diameter of inhibition zone, CAZ-30 disc with agent
[9] = tested on: E. coli 77 CMY-2-positive; assay: combination disc test CDT-AmpC; format: cell-based; conditions: Escherichia coli; agent 0.3 mg per disc; read-out: Diameter of inhibition zone, CAZ-30 disc with agent
[10] = tested on: P. aeruginosa MUW 700 cAmpC-positive; assay: checkerboard microdilution, antibiotic plus tested agent; format: cell-based, Pseudomonas aeruginosa
Outline: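 Read-out is the antibiotic MIC with agent present, plus FICI = combined/alone MIC ratios summed for both partners. Meropenem pairs served for carbapenemase strains and ceftazidime pairs for the AmpC strain. Agent or PBA was tested at 4–16 mg/L.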

[11] = MTT-based viability assay; format: cell-based; conditions: human, MRC-5 human fibroblasts, 72 h, read-out: Viability of MRC-5 cells (% of viable cells ± SD)
Outline: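 MRC-5 human fibroblasts grown in MEME with 10% FBS at 37 °C, 5% CO2, tested by MTT with absorbance read at 570 nm. Viability given as percent of untreated control cells, in triplicate.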

SMILES | MIC [1] [µg/mL] | MIC [2] [µg/mL] | MIC (C. krusei ATCC 6258) [µg/mL] | MIC (C. albicans ATCC 90028) [µg/mL] | MIC (C. tropicalis ATCC 750) [µg/mL] | MIC (C. tropicalis IBA 171) [µg/mL] | MIC (S. cerevisiae ATCC 9763) [µg/mL] | MIC (E. coli 76 KPC-2(+)) [µg/mL] | MIC (E. coli 77 CMY-2(+)) [µg/mL] | MIC [3] [µg/mL] | MIC [4] [µg/mL] | MIC [5] [µg/mL] | MIC [6] [µg/mL] | zone of inhibition at 300 µg/disc [7] [mm] | zone of inhibition at 300 µg/disc [8] [mm] | zone of inhibition at 300 µg/disc [9] [mm] | Average FICI with ceftazidime [10] | Interpretation of the average FICI with ceftazidime [10] | Interpretation of the lowest FICI with ceftazidime [10] | The lowest FICI with ceftazidime [10] | also measured
OB(O)c1ccc(B(O)O)c(B(O)O)c1 [4b, benzene-1,2,4-triboronic] | > 400 | > 400 | > 400 | > 400 | > 400 | > 400 | > 400 | > 400 | > 400 | > 400 | > 400 | > 400 | > 400 | 14 | 21 | 21 | 0.30 | S (FICI ≤ 0.5, synergy) | S (FICI ≤ 0.5, synergy) | 0.15 | viability at 72 h, 12.5 mg/L [11]: 114 ± 1.8%; viability at 72 h, 25 mg/L [11]: 106.4 ± 0.1%; viability at 72 h, 50 mg/L [11]: 97.3 ± 13.6%
OB(O)c1ccsc1B(O)O [5a, thiophene-2,3-diboronic acid] | > 400 | > 400 | > 400 | 400 (≈ 2330 µM) | > 400 | > 400 | > 400 | > 400 | > 400 | > 400 | > 400 | > 400 | > 400 | 15 | 22 | 20 | 0.30 | S (FICI ≤ 0.5, synergy) | S (FICI ≤ 0.5, synergy) | 0.15 | viability at 72 h, 12.5 mg/L [11]: 88.6 ± 9.2%; viability at 72 h, 25 mg/L [11]: 87.1 ± 1.6%; viability at 72 h, 50 mg/L [11]: 79.2 ± 5.1%
OB(O)c1cccc(B(O)O)c1 [2a] | > 400 | > 400 | > 400 | 400 (≈ 2410 µM) | > 400 | 400 (≈ 2410 µM) | > 400 | > 400 | > 400 | > 400 | > 400 | > 400 | > 400 | 15 | 21 | 22 | 0.18 | S (FICI ≤ 0.5, synergy) | S (FICI ≤ 0.5, synergy) | 0.14 | zone of inhibition at 0.4 mg/disc ([2]; 0.4 mg per disc, 9 mm disc (fluconazole 0.025 mg, 6 mm disc), - no zone, read-out: Diameter of inhibition zone): 14 mm; viability at 72 h, 12.5 mg/L [11]: 94.4 ± 2.2%; viability at 72 h, 25 mg/L [11]: 75.2 ± 10.3%; viability at 72 h, 50 mg/L [11]: 73.1 ± 13.6%
